Like-named read-outs stand apart in the source and are kept apart here.
Assays:
hemolysis = experiment: Hemolytic assay; format: cell-based
Procedure: (§1) Natural and synthetic QS-21 (SQS-21 or SAPONEX®) and a variety of analogs were tested for hemolytic activity.

[1] = cited from earlier work
[2] = Companion toxicity study: body mass three days after immunization; conditions: 20 mcg
[3] = Pharm/tox study with Adacel, QS-21 and TiterQuil-1055: body weight
Source text: A 0.5 mcg dose of Adacel was selected for a pharmacology/toxicology (pharm/tox) study.
Mice were vaccinated SC on days 1 and 15, weighed daily, and bled and sacrificed on day 22, except for group 7 which was sacrificed on day 29.

Stability at 37° C. = format: physicochemical; conditions: after two weeks at 37° C.
Procedure: as §1

liver = experiment: Pilot pharm/tox study: histopathology of 33 tissues
HA from H3N2 virus = experiment: Anti-HA total IgG ELISA after immunization with HA protein; format: in vivo, female BL/6 mice; conditions: 50 μg Compound I-4 with 9 or 3 μg/ml HA protein vs 9 μg/ml HA alone, day 21 serum
[4] = mouse, in vivo

Compound | hemolytic activity (hemolysis) | tolerated / maximum dose in cancer patients ([1]; cancer patients, above it local and systemic side effects) [µg] | maximum dose for healthy patients ([1]; healthy patients) [µg] | highest practical tolerable dose ([1]; well (non-cancer) adult and child recipients) [µg] | body mass lost on average [2] | body weight lost ([3]; mice injected with 20 mcg) | degraded (Stability at 37° C.) | liver histopathology (hepatocellular cytoplasmic vacuolization) (liver; mouse, in vivo, sc) | weight loss ([3]; mice receiving 50 mcg) | anti-HA total IgG endpoint titer and dose sparing of HA (HA from H3N2 virus) | liver histopathology (hepatocellular cytoplasmic vacuolization) (liver; SC days 1 and 15, sacrificed day 22, 50 mcg TiterQuil-1055, 20 mcg QS-21, Adacel 2.5 mcg pertussis toxin) | body mass gained on average [4] [%] | weight loss (30 mcg dose with Engerix-B) | weight loss (100 mcg dose with Engerix-B) [%] | weight loss (300 mcg dose with Engerix-B) [%]
QS-21 [reference compound] | highly hemolytically active | 100 to 150 | ~50 | 25 to 50 | 8-10% | 8-9% | 20% | Mild vacuolar changes | – | – | – | – | – | – | –
CC1O[C@@H](OC2C(O)[C@@H](NC(=O)CCCCCCCCCCC(=O)O)C(CO)O[C@H]2OC(=O)[C@]23CCC(C)(C)CC2C2=CCC4C5(C)CC[C@H](O)C(C)(C=O)C5CCC4(C)C2(C)CC3O)C(O)C(O)[C@H]1O[C@@H]1OC[C@@H](O)C(O)C1O (some centres unmarked) [Compound I-4] | much lower or undetectable hemolytic activity | – | – | – | – | – | without detectable degradation | – | No weight loss | enhances anti-HA total IgG and provides a dose sparing effect on HA concentration | No changes at all | 5 | No weight loss | 4 | 5

Source: patent publication US20200164065A1, “TRITERPENE SAPONIN ANALOGUES” (ADJUVANCE TECHNOLOGIES, INC., priority 2017, published 2020)
